Tested on: male and female Sprague–Dawley rats
Experiment: 90-day subchronic oral gavage toxicity study
Assay type: in vivo, rat
Procedure: Subchronic (90-day) studies were performed in accordance with current U.S. EPA’s Toxic Substances Control Act Good Laboratory Practice (GLP) Standards, with the following two general exceptions to the GLP guidelines: Analysis of the dose formulations was conducted according to RTI-approved Standard Operating Procedures, and corn oil (the vehicle) was not characterized (certificate of analysis from the vendor is available in the appendices to the final reports). Male and female Sprague–Dawley rats (five dose levels plus a control, n = 10/sex/dose group, corn oil vehicle dose volume of 3 mL/kg; oral gavage) were used in these studies, and the rats were euthanized on SD 91. The dose levels for PFHI were 0, 12.5, 25, 50, 100, and 200 mg/kg-day. The dose levels for MHFPK were 0, 18.8, 37.5, 75, 150, and 300 mg/kg-day. The dose levels for PFNAC were 0, 0.1, 0.3, 1.0, 3.0, and 10 mg/kg-day for male rats and 0, 0.3, 1.0, 3.0, 10, and 30 mg/kg-day for female rats. For CTFPA, the dose levels were 0, 1.9, 3.8. 7.5, 15, and 30 mg/kg-day for male rats and 0, 6.3, 12.5, 25, 50, and 100 mg/kg-day for female rats. For each PFAS, three batches of dosing solution were prepared. The time between the batch preparation of the dosing solutions ranged between 29 and 39 days. Blood samples were collected from all the rats at termination for serum chemistry, hematology, coagulation, and the analysis of the parent PFAS chemical in the plasma. In vivo data collection and further detail on the endpoints examined postmortem are described below.
The rats were observed twice daily for morbidity and mortality throughout the study period. At least once prior to randomization to test groups and weekly thereafter, the rats were physically examined, and bodyweights were obtained. Feed consumption was quantified weekly starting on SD 1.
Neurotoxicity was evaluated using the functional observational battery (FOB) and measuring locomotor activity (LMA) 2–4 h post dosing on SDs 78–80 and 80–84, respectively. For both the 14- and 90-day studies, an ophthalmologic examination was conducted prior to randomization and near the end of the study, using indirect ophthalmoscopy and slit–lamp biomicroscopy (as needed) after the administration of a mydriatic solution.
Hematology, biochemistry, and coagulation endpoints were measured at the termination of the study. A Siemens Advia 2120i hematology analyzer (Siemens Healthineers, Erlangen, Germany) was used to measure (or calculate) the parameters related to the complete blood count, leukocyte differential count, and reticulocyte count. The hematology parameters are listed and described in Table 2. The prothrombin time […] and activated partial thromboplastin time (APTT) were measured using an Instrumentation Laboratory (Bedford, MA, USA) ACL Elite Pro coagulation analyzer (laser–nephelometric centrifugal method).
At necropsy, the rats were visually examined for external abnormalities and organ weights (absolute and relative to the BW and brain weight), which were recorded (paired organs weighed together). The tissues were preserved in 10% neutral buffered formalin (NBF), except for the ocular tissues, testes, and epididymides, which were preserved in modified Davidson’s fixative and later transferred to 10% NBF. Bone marrow smears were prepared from the femurs, and the slides were air-dried, fixed in methanol, stained, and stored at room temperature for possible future evaluation. The preserved tissues were embedded in paraffin, sectioned, stained with hematoxylin and eosin, and examined by a board-certified veterinary pathologist.
Statistical analysis was performed using Provantis™ Version 10 or greater (Instem LSS, Limited; Stone, Staffordshire, UK). Differences among the treatment groups compared to the control were evaluated using one-way analysis of variance (ANOVA) if the underlying assumptions of a normal distribution (Shapiro–Wilk test) and the homogeneity of the variance (Levene’s test) were satisfied. […]

C=CC(=O)OCC(F)(F)C(F)(F)C(F)(F)C(F)(F)C(F)(F)C(F)(F)C(F)(F)C(F)F [PFNAC, 1H,1H,9H-Perfluorononyl acrylate]
Liver/Body Weight (female, 30 mg/kg-day): 3.22%
Liver/Brain Weight (female, 30 mg/kg-day): 499%
MPV (female, 30 mg/kg-day): 7.95 ± 0.58 fL
PT (female, 30 mg/kg-day): 14.44 s
RBC (female, 30 mg/kg-day): 7.067±0.364 M/µL
Total BW change (female, 30 mg/kg-day): 106.79 g
Total Food Consumed (female, 30 mg/kg-day): 1525 g
BMD10, absolute kidney weight increase (male): 0.17 mg/kg-day
BMD10, absolute liver weight increase (male): 0.09 mg/kg-day
BMD10, relative liver weight increase (male): 0.15 mg/kg-day
BMDL, absolute kidney weight increase (male): 0.06 mg/kg-day
BMDL, absolute liver weight increase (male): 0.04 mg/kg-day
BMDL, relative liver weight increase (male): 0.13 mg/kg-day
LOEL, absolute kidney weight increase (male): 0.3 mg/kg-day
LOEL, absolute liver weight increase (male): 0.3 mg/kg-day
LOEL, relative kidney weight increase (male): 1.0 mg/kg-day
LOEL, relative liver weight increase (male): 0.3 mg/kg-day
NOEL, absolute kidney weight increase (male): 0.1 mg/kg-day
NOEL, absolute liver weight increase (male): 0.1 mg/kg-day
NOEL, relative kidney weight increase (male): 0.3 mg/kg-day
NOEL, relative liver weight increase (male): 0.1 mg/kg-day
% BW Gain (male, 0.1 mg/kg-day): 110.97%
% Diff, % BW Gain (male, 0.1 mg/kg-day): 9.90%
% Diff, Total BW change (male, 0.1 mg/kg-day): 10.47%
% Diff, Total Food Consumed (male, 0.1 mg/kg-day): 3.57%
A/G (male, 0.1 mg/kg-day): 0.90±0.08 ratio
ABNEUT (male, 0.1 mg/kg-day): 4.163±1.653 K/µL
ABRETi (male, 0.1 mg/kg-day): 193.23±33.44 10^9/L
ABSEOS (male, 0.1 mg/kg-day): 0.112±0.047 K/µL
ALB (male, 0.1 mg/kg-day): 3.60 ± 0.21 g/dL
ALPi (male, 0.1 mg/kg-day): 138.7±40.9 U/L
APTT (male, 0.1 mg/kg-day): 23.16 s
BUN (male, 0.1 mg/kg-day): 16.2 ± 1.6 mg/dL
CHOL (male, 0.1 mg/kg-day): 73.4 ± 15.5 mg/dL
GLOB (male, 0.1 mg/kg-day): 4.03 ± 0.29 g/dL
GLUC (male, 0.1 mg/kg-day): 107.6 ± 8.6 mg/dL
HCT (male, 0.1 mg/kg-day): 46.10±4.64%
HGB (male, 0.1 mg/kg-day): 14.36 ± 1.40 g/dL
Kidney Weight (male, 0.1 mg/kg-day): 3.14 g
Kidney/Body Weight (male, 0.1 mg/kg-day): 0.51%
Kidney/Brain Weight (male, 0.1 mg/kg-day): 141%
Liver Weight (male, 0.1 mg/kg-day): 14.99 g
Liver/Body Weight (male, 0.1 mg/kg-day): 2.41%
Liver/Brain Weight (male, 0.1 mg/kg-day): 673%
MPV (male, 0.1 mg/kg-day): 7.82 ± 0.50 fL
PT (male, 0.1 mg/kg-day): 15.98 s
RBC (male, 0.1 mg/kg-day): 8.281±0.895 M/µL
Total BW change (male, 0.1 mg/kg-day): 333.40 g
Total Food Consumed (male, 0.1 mg/kg-day): 2298 g
% BW Gain (male, 0.3 mg/kg-day): 113.17%
% Diff, % BW Gain (male, 0.3 mg/kg-day): 12.08%
% Diff, Total BW change (male, 0.3 mg/kg-day): 12.46%
% Diff, Total Food Consumed (male, 0.3 mg/kg-day): 9.40%
A/G (male, 0.3 mg/kg-day): 0.98±0.10 ratio
ABNEUT (male, 0.3 mg/kg-day): 3.679±1.341 K/µL
ABRETi (male, 0.3 mg/kg-day): 224.66±50.41 10^9/L
ABSEOS (male, 0.3 mg/kg-day): 0.108±0.037 K/µL
ALB (male, 0.3 mg/kg-day): 3.74 ± 0.23 g/dL
ALPi (male, 0.3 mg/kg-day): 174.2±32.7 U/L
APTT (male, 0.3 mg/kg-day): 15.99 s
BUN (male, 0.3 mg/kg-day): 18.3 ± 1.6 mg/dL
CHOL (male, 0.3 mg/kg-day): 78.7 ± 16.8 mg/dL
GLOB (male, 0.3 mg/kg-day): 3.85 ± 0.30 g/dL
GLUC (male, 0.3 mg/kg-day): 112.1 ± 9.6 mg/dL
HCT (male, 0.3 mg/kg-day): 47.33±1.28%
HGB (male, 0.3 mg/kg-day): 14.69 ± 0.40 g/dL
Kidney Weight (male, 0.3 mg/kg-day): 3.46 g
Kidney/Body Weight (male, 0.3 mg/kg-day): 0.56%
Kidney/Brain Weight (male, 0.3 mg/kg-day): 157%
Liver Weight (male, 0.3 mg/kg-day): 17.52 g
Liver/Body Weight (male, 0.3 mg/kg-day): 2.82%
Liver/Brain Weight (male, 0.3 mg/kg-day): 793%
MPV (male, 0.3 mg/kg-day): 7.63 ± 0.44 fL
PT (male, 0.3 mg/kg-day): 15.10 s
RBC (male, 0.3 mg/kg-day): 8.282±0.259 M/µL
Total BW change (male, 0.3 mg/kg-day): 339.42 g
Total Food Consumed (male, 0.3 mg/kg-day): 2427 g
% BW Gain (male, 1.0 mg/kg-day): 108.93%
% Diff, % BW Gain (male, 1.0 mg/kg-day): 7.88%
% Diff, Total BW change (male, 1.0 mg/kg-day): 4.36%

From article PMC12298827, “Subchronic Toxicities of Four Per- and Polyfluoroalkyl Substances (PFASs) by Oral Exposure in Sprague–Dawley Rats” (Toxics, 2025)
